The values below come from patent publication US4317824A, “Derivatives of quinoxaline-1,4-dioxides” (Abic, Ltd., priority 1976, dated 1982).

The subject of assay [1] is Shig. Flex. In words: antimicrobial activity, minimal inhibitory concentration, Shig. Flex. Format: cell-based. The protocol: (§1) The antimicrobial activity of some compounds according to the present invention was measured and the results are shown in the following Tables. The activity is indicated as the minimal inhibitory concentration in μg/ml.
Assay [2] deals with B. Cereus. In words: antimicrobial activity, minimal inhibitory concentration, B. Cereus. The note with it: Bacillus cereus. Format: cell-based. The procedure:
as §1

The test system of assay [3] is Staph. Aur. In words: antimicrobial activity, minimal inhibitory concentration, Staph. Aur. Format: cell-based. The procedure:
as §1

The subject of assay [4] is B. Subtilis. In words: antimicrobial activity, minimal inhibitory concentration, B. Subtilis. The note with it: Bacillus subtilis. The class given is cell-based. The procedure:
as §1

The subject of assay [5] is E. Coli. In words: antimicrobial activity, minimal inhibitory concentration, E. Coli. The note with it: Escherichia coli. Format: cell-based. The protocol: as §1
Assay [6] deals with Mycoplasma gallisept. In words: antimicrobial activity, minimal inhibitory concentration, Mycoplasma gallisept. The class given is cell-based. The protocol: as §1
The subject of assay [7] is E. Coli. In words: E. Coli infections chick. Format: in vivo. The note with it: 50 mg/kg. The procedure:
(§2) Some compounds of general formula Id were tested also in vivo.

Assay [8] concerns E. Coli. In words: Systemic E. Coli infection in mice. Format: in vivo. The note with it: systemic E. Coli infection, 2,5 mg × 2 per day. The procedure:
as §2

Assay [9] has as its system St. aur. In words: Systemic St. aur infection in mice. Format: in vivo. The note with it: systemic St. aur infection, 2,5 mg × 2 per day. The protocol: as §2
The subject of assay [10] is Proteus. In words: antimicrobial activity, minimal inhibitory concentration, Proteus. The class given is cell-based. The protocol: as §1
Assay [11] has as its system Salm. Typh. In words: antimicrobial activity, minimal inhibitory concentration, Salm. Typh. The note with it: read-out: minimal inhibitory concentration. The class given is cell-based. The procedure: as §1
The test system of assay [12] is Pseud. Aur. In words: antimicrobial activity, minimal inhibitory concentration, Pseud. Aur. The class given is cell-based. The protocol: as §1
Assay [13] relates to Trichophyt. Rubrum. In words: antimicrobial activity, minimal inhibitory concentration, Trichophyt. Rubrum. Format: cell-based. The procedure: as §1
The subject of assay [14] is E. Coli. In words: U. Tract infections in mice (E. Coli). Format: in vivo. The note with it: U. Tract infections (E. Coli), 2,5 mg × 10 days. The protocol:
as §2

In brackets after ≈: the same amount, converted by molar mass.

As to `COC(=NO)c1c[n+]([O-])c2ccccc2[n+]1[O-]` [Example 17 (methoxy), 2-(α-methoxy)-carboxaldoxime-quinoxaline-1,4-dioxide], the MIC in assay [1] was 11 to 100 µg/mL (≈ 46.8 to 425 µM); in assay [2], 10 µg/mL (≈ 42.5 µM); in assay [3], 10 µg/mL (≈ 42.5 µM); in [4] it was 11 to 100 µg/mL (≈ 46.8 to 425 µM); in assay [5], 10 µg/mL (≈ 42.5 µM); in [6], 2 to 10 µg/mL (≈ 8.5 to 42.5 µM).
Turning to `CNC(=NO)c1c[n+]([O-])c2ccccc2[n+]1[O-]` [Example 18 (methylamino), 2-(N-methylamino)-carboxaldoxime-quinoxaline-1,4-dioxide], the Protection result in assay [7], in assay [8] and in assay [9] was “+ (indicates protection >80%)” throughout. The MIC in [2] is 25 µg/mL (≈ 107 µM); in assay [3] it was 10 µg/mL (≈ 42.7 µM); in assay [10] it was 11 to 100 µg/mL (≈ 47 to 427 µM); in assay [5], 25 µg/mL (≈ 107 µM); in assay [6], 10 to 20 µg/mL (≈ 42.7 to 85.4 µM); in [11], 25 µg/mL (≈ 107 µM).
Turning to `CCNC(=NO)c1c[n+]([O-])c2ccccc2[n+]1[O-]` [Example 18, 2-(N-ethylamino)-carboxamidoxime-quinoxaline-1,4-dioxide], the MIC in assay [2] was 25 µg/mL (≈ 101 µM); in assay [3], 10 µg/mL (≈ 40.3 µM); in [10] it was 11 to 100 µg/mL (≈ 44.3 to 403 µM); in [5], 25 µg/mL (≈ 101 µM); in [6] it was 10 to 25 µg/mL (≈ 40.3 to 101 µM); in [11] it was 25 µg/mL (≈ 101 µM). In addition, the Protection result in assay [8] is listed as “+ (indicates protection >80%)”; in [9], “+/- (indicates protection 50-80%)”.
For `CN(C)NC(=NO)c1c[n+]([O-])c2ccccc2[n+]1[O-]` [Example 21e, 2-(α-N-dimethyl-hydrazino)-carboxaldoxime-quinoxaline-1,4-dioxide], the MIC in [2] is 10 µg/mL (≈ 38 µM); in [3], 10 to 25 µg/mL (≈ 38 to 95 µM); in assay [5] it was 2 to 10 µg/mL (≈ 7.6 to 38 µM); in [6], 25 µg/mL (≈ 95 µM); in assay [11] it was 100 µg/mL (≈ 380 µM).
Turning to `CCN(CC)C(=NO)c1c[n+]([O-])c2ccccc2[n+]1[O-]` [Example 22, 2-(N-diethylamino)-carboxaldoxime-quinoxaline-1,4-dioxide], the MIC in assay [2] was 11 to 100 µg/mL (≈ 39.8 to 362 µM); in [3], 11 to 100 µg/mL (≈ 39.8 to 362 µM); in [5] it was 50 µg/mL (≈ 181 µM); in assay [11], 50 µg/mL (≈ 181 µM); in assay [12], 10 µg/mL (≈ 36.2 µM).
For the molecule `CC(=O)NNC(=NO)c1c[n+]([O-])c2ccccc2[n+]1[O-]` [Example 24, 2-N-(acetyl-hydrazino)-carboxaldoxime-quinoxaline-1,4-dioxide], the MIC in [2] is 11 to 100 µg/mL (≈ 39.7 to 361 µM); in assay [3], 10 µg/mL (≈ 36.1 µM); in [13], 11 to 100 µg/mL (≈ 39.7 to 361 µM); in assay [10] it was 11 to 100 µg/mL (≈ 39.7 to 361 µM); in assay [5] it was 11 to 100 µg/mL (≈ 39.7 to 361 µM); in [11], 11 to 100 µg/mL (≈ 39.7 to 361 µM). In addition, the Protection result in assay [8] and in assay [9] was “+ (indicates protection >80%)” each time.
As to `CN(C)C(=NO)c1c[n+]([O-])c2ccccc2[n+]1[O-]` [Example 30, 2-(dimethylamino)-carboxaldoxime-quinoxaline-1,4-dioxide], the Protection entry is listed as “+ (indicates protection >80%)” in [7], “+ (indicates protection >80%)” in assay [8], “+ (indicates protection >80%)” in assay [14] and “+/- (indicates protection 50-80%)” in [9]. Besides, the MIC in [2] stood at 50 µg/mL (≈ 201 µM); in assay [3], 10 µg/mL (≈ 40.3 µM); in [5], 10 µg/mL (≈ 40.3 µM).
Regarding `CCC(=O)ON=C(Cl)c1c[n+]([O-])c2ccccc2[n+]1[O-]` [Y = H, R = CH2CH3], the MIC is 11 to 100 µg/mL (≈ 37.2 to 338 µM) in assay [1]; 25 µg/mL (≈ 84.6 µM) in [2]; 10 µg/mL (≈ 33.8 µM) in [3]; 11 to 100 µg/mL (≈ 37.2 to 338 µM) in [4]; 25 µg/mL (≈ 84.6 µM) in assay [5]; 25 µg/mL (≈ 84.6 µM) in [11].
`[O-][n+]1cc(C(=NO)NN2CCOCC2)[n+]([O-])c2ccccc21` [drawing 5]: the figures for the MIC in [3], in assay [13] and in assay [4] were 11 to 100 µg/mL (≈ 36 to 328 µM), 1 µg/mL (≈ 3.28 µM) and 11 to 100 µg/mL (≈ 36 to 328 µM), respectively.
As for `CN1CCN(C(=NO)c2c[n+]([O-])c3ccccc3[n+]2[O-])CC1` [drawing 6], the MIC was 25 µg/mL (≈ 82.4 µM) in [2]; 25 µg/mL (≈ 82.4 µM) in assay [3]; 11 to 100 µg/mL (≈ 36.3 to 330 µM) in assay [10]; 25 µg/mL (≈ 82.4 µM) in assay [5]; 10 µg/mL (≈ 33 µM) in assay [6]; 11 to 100 µg/mL (≈ 36.3 to 330 µM) in assay [12].
For `[O-][n+]1cc(C(=NO)NN2CCOCC2)[n+]([O-])c2ccccc21` [drawing 8], the Protection result in [7] is “- (indicates protection <50%)”; in [8], “+ (indicates protection >80%)”; in [9], “+ (indicates protection >80%)”.
